Reference: patent US10508087B2, “Crystalline forms of trisodium supramolecular complex comprising valsartan and AHU-377 and methods thereof” (CRYSTAL PHARMATECH CO., LTD., priority 2014, dated 2019)
Where “and” joins values, the source holds several entries; their conditions need not be identical. Equal values may be shown once. Entries after “also recorded” stand apart in the source; their conditions may differ. Read-outs that look alike come from different tables or passages of the source.

What was measured:
[1] = Crystal form stability of drug substance in different temperature and humidity conditions; type: physicochemical
Protocol: The drug substance of Form II was subjected to different relative humidity levels at 40° C. (±2° C.), samples were pulled out and evaluated for crystal form after a specified time period, and the results are summarized in Table 10.
The drug substance of Form II was subjected to different temperatures at RH 32% (±5%), samples were pulled out and evaluated for crystal form after a specified time period, the results are summarized in Table 11.
The drug substance of Form II was packed with PE to evaluate the stability.
The drug substance of Form II was stored in sealed glass vial under ambient conditions for 9 months.

[2] = not given; remark: listed apart in the source
[3] = drug substance powder, individual determination, trihydrate

SMILES | moisture uptake compared to patent form (DVS) (humidity levels 50% RH to 60% RH at 25° C., trihydrate) | Crystal form stability, accelerated ([1]; packed with PE, 40° C., RH 75%, one month) | Crystal form stability ([1]; sealed glass vial, ambient conditions, 9 months) | Compressibility Index ([2]; (Tapped Density-Bulk Density)/Tapped Density*100%, individual determination, trihydrate) | Compressibility Index Average ([2]; average of the determinations) | flowability compared with patent form ([2]; by compressibility index) | Bulk Density [2, 3] | Tapped Density [2, 3] | Flowability ([2]; rating by compressibility index, USP<1174>, trihydrate) | moisture uptake compared to patent form (DVS) (humidity levels 20% RH to 60% RH at 25° C., hydrate)
CCCCC(=O)N(Cc1ccc(-c2ccccc2-c2nnn[n-]2)cc1)[C@H](C(=O)[O-])C(C)C.CCOC(=O)[C@H](C)C[C@@H](Cc1ccc(-c2ccccc2)cc1)NC(=O)CCC(=O)[O-].O.O.O.[Na+].[Na+].[Na+] [Form II, trisodium [3-((1S,3R)-1-biphenyl-4-ylmethyl-3-ethoxycarbonyl-1-butylcarbamoyl) propionate-(S)-3′-methyl-2′-(pentanoyl{2″-(tetrazol-5-ylate)biphenyl-4′-ylmethyl}amino) butyrate] trihydrate] | less hygroscopic; also recorded: less moisture uptake | remained stable | remained stable | 22% and 23% (2×) | 22% | better | 0.197 g/mL and 0.229 g/mL and 0.258 g/mL | 0.251 g/mL and 0.297 g/mL and 0.337 g/mL | Passable | 
CCCCC(=O)N(Cc1ccc(-c2ccccc2-c2nnn[n-]2)cc1)[C@H](C(=O)[O-])C(C)C.CCOC(=O)[C@H](C)C[C@@H](Cc1ccc(-c2ccccc2)cc1)NC(=O)CCC(=O)[O-].O.[Na+].[Na+].[Na+] [Form I, trisodium [3-((1S,3R)-1-biphenyl-4-ylmethyl-3-ethoxycarbonyl-1-butylcarbamoyl) propionate-(S)-3′-methyl-2′-(pentanoyl{2″-(tetrazol-5-ylate)biphenyl-4′-ylmethyl}amino) butyrate] hydrate] |  |  |  |  |  |  |  |  |  | less hygroscopic; also recorded: less moisture uptake
